Measurements published in patent publication US20240277790A1, “RECOMBINANT BACULOVIRUSES, ALPHAVIRUS VIRUS-LIKE REPLICON PARTICLES PRODUCED THEREOF AND THEIR USES” (priority 2023, published 2024).

Tested on: mos-CHIK-VRPs
Assay: VRP-based antiviral drug assay (luciferase) on Vero cells
Type: cell-based, CHIKV
Settings: Chikungunya virus, Vero cells, 2,500 IU VRPs/well, 1 hour + 5 hours at 34° C., read-out: IC50 of inhibition of VRP infection
Experimental: Luciferase activity in the mos-CHIK-VRPs infected Vero cells was measured using a commercial luciferase assay kit (Promega) in accordance with the manufacturer's instructions. Signals reflecting the luciferase activity was read by a microplate reader (BioTek).
Suramin and 6-azauridine (6-AU) (both from Sigma-Aldrich) were dissolved in water to prepare the stock solutions (suramin, 50 mg/ml, 35 mM; 6-AU, 50 mg/ml, 200 mM) and then stored at −20° C. until use. Vero cells were seeded at a density of 1.5×10^4 cells/well (96 well white/clear bottom plate), and then infected with 2,500 IU VRPs/well in the presence of serially diluted suramin or 6-AU in MEM for 1 hour at 34° C. The suramin- or 6-AU-treated cells were then grown in a 5% FBS medium containing the corresponding concentrations of suramin or 6-AU for another 5 hours at 34° C., then VRP activity was measured by luciferase assay.

Row | SMILES | IC50
1 | Cc1ccc(C(=O)Nc2ccc(S(=O)(=O)O)c3cc(S(=O)(=O)O)cc(S(=O)(=O)O)c23)cc1NC(=O)c1cccc(NC(=O)Nc2cccc(C(=O)Nc3cc(C(=O)Nc4ccc(S(=O)(=O)O)c5cc(S(=O)(=O)O)cc(S(=O)(=O)O)c45)ccc3C)c2)c1 [suramin] | 81.3 µM
2 | O=c1cnn([C@@H]2O[C@H](CO)[C@@H](O)[C@H]2O)c(=O)[nH]1 [6-AU, 6-azauridine] | 1.29 µg/mL
